Results taken from patent US4701406A, “Assay for the detection of epigenetic toxic (non-genotoxic) substances” (priority 1984, dated 1987).
Read-outs that look alike come from different tables or passages of the source.

Experiments:
[1] = system: cytoskeletal elements (microtubules and microfilaments) of Swiss 3T3 cells
genetic material = settings: presently used assays; cited from earlier work
[2] = system: cytoskeletal elements (microtubules) of quiescent 3T3 cells
skin = settings: cited from earlier work
[3] = Table I; recognized by U.S. Department of Health and Human Services; cited from earlier work
tubulin = settings: in vitro; cited from earlier work

SMILES: O=[As][O-].[Na+] [As(III) as NaAsO2, NaAsO2]
- Cytoskeletal Perturbation [1]: positive

SMILES: O=[N+]([O-])c1ccc(Cl)c([N+](=O)[O-])c1 [CDNB, 1-Chloro-2,4-dinitro-benzene]
- identification by genotoxicity / mutagenicity assays (genetic material): consistently failed to be identified
- Cytoskeletal Perturbation ([1]; 5.0 × 10^-6 M, 2.0 hrs, FIG. 1g): positive
- Cytoskeletal Disruption ([2]; 5 × 10^-6 M, 2 hours, FIG. 2b): positive
- allergic contact dermatitis (skin): severe allergic contact dermatitis

SMILES: O=S(=O)([O-])[O-].[Cd+2] [Cd(II) as CdSO4, CdSO4]
- Cytoskeletal Perturbation ([1]; 2.5 × 10^-5 M, 3.0 hrs, FIG. 1c): positive

SMILES: O=S(=O)([O-])[O-].[Co+2] [Co(II) as CoSO4, CoSO4]
- Health Hazardous Activity (carcinogen / promoter) [3]: Carcinogen
- Cytoskeletal Perturbation ([1]; 4.0 × 10^-4 M, 17.0 hrs, FIG. 1f): positive

SMILES: [K+].[K+].[O]=[Cr](=[O])([O-])[O][Cr](=[O])(=[O])[O-] [Cr(VI) as K2 Cr2 O7, K2 Cr2 O7]
- Cytoskeletal Perturbation [1]: positive
- Cytoskeletal Disruption ([2]; 1.2 × 10^-3 M, 3 hours, FIG. 2c): positive

SMILES: O=[N+]([O-])c1ccc(F)c([N+](=O)[O-])c1 [FDNB, fluorodinitrobenzene]
- allergic contact dermatitis (skin): severe allergic contact dermatitis

SMILES: O=S(=O)([O-])[O-].[Ni+2] [Ni(II) as NiSO4, NiSO4]
- Cytoskeletal Perturbation [1]: positive
- Cytoskeletal Disruption ([2]; 1.5 × 10^-3 M, 3 hours, FIG. 2d): positive

SMILES: Nc1ccc(N)cc1 [PPD, P--Phenylene-diamine]
- identification by genotoxicity / mutagenicity assays (genetic material): consistently failed to be identified
- Cytoskeletal Perturbation ([1]; 5.0 × 10^-4 M, 3.5 hrs, FIG. 1h): positive
- skin sensitization (skin; human as well as animal studies): potent skin sensitizers
- Health Hazardous Activity (potent skin sensitizer) (skin; identified by skin patch test): sensitizer

SMILES: CC(=O)O[C@H]1C(=O)[C@@]2(C)[C@H]([C@H](OC(=O)c3ccccc3)[C@]3(O)C[C@H](OC(=O)[C@H](O)[C@@H](NC(=O)c4ccccc4)c4ccccc4)C(C)=C1C3(C)C)[C@]1(OC(C)=O)CO[C@@H]1C[C@@H]2O [taxol]
- tubulin polymerization (tubulin): promote tubulin polymerization in vitro
- effectiveness, taxol introduced prior to vs simultaneously with the epigenetic substances ([2]; prior to or simultaneous treatment): no discernible difference in effectiveness
- Cytoskeletal Disruption ([2]; taxol alone, 12 × 10^-6 M, 2 hours, FIG. 2h): negative
